Test results: PubChem BioAssay (NCI)
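Cells were grown in 96-well plates and exposed to each compound for 48 hours at five concentrations; endpoints were interpolated linearly between bracketing concentrations, or set to the highest concentration if not reached. TGI denotes the concentration required for complete inhibition of growth.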

Key:
Test in all cases: DTP human tumour cell line panel, 48 h
[1] = system: A498 renal
[2] = system: M14 melanoma
[3] = system: U251 CNS
[4] = system: MOLT-4 leukemia
[5] = system: SK-MEL-2 melanoma
[6] = system: CAKI-1 renal
[7] = system: HCT-15 colon
[8] = system: SK-MEL-5 melanoma
[9] = system: RXF 393 renal
[10] = system: NCI-H226 lung
[11] = system: SF-268 CNS

Structure (SMILES)	TGI [1] [µM]	TGI [2] [µM]	TGI [3] [µM]	TGI [4] [µM]	TGI [5] [µM]	TGI [6] [µM]	TGI [7] [µM]	TGI [8] [µM]	TGI [9] [µM]	TGI [10] [µM]	TGI [11] [µM]
C/C(=N\NC(=S)NCCCNC(=S)N/N=C(\C)c1ccccn1)c1ccccn1	26.2	4.08	> 47.1	> 100	> 50.9	> 49.9	> 30.7	> 22	14.7	> 29.6	21
COC(=O)C(CCSC)NC(=O)Cc1ccc(C(=O)c2ccccc2)cc1 (centres undefined)	> 100	> 100	> 100	> 100	> 100	> 100	> 100	> 100	> 100	> 100	> 100
O=C1CC(c2ccccc2)n2cccc21 (centres undefined)	> 100	> 100	> 100		> 100	> 100	> 100	> 100	> 100	> 100	> 100
O=c1/c(=C/c2ccc(-c3ccc(Cl)cc3Cl)o2)sc2n1[C@@H](c1ccc(Cl)cc1)C=C(c1cc(F)c(Cl)cc1Cl)N=2	4.71	> 100	> 100	67.9	> 100	> 100	> 100	> 100	> 100	> 100	> 100
CCOC(=O)C(SCCO)C(C(=O)OCC)n1ccc(=O)[nH]c1=O (centres undefined)	> 100	> 90.5	82.9	21.7	> 79.8	39.5	> 57.5	> 100	81.4	> 61.2	> 100
C=C(C)[C@@H]1CCC2=C[C@H](OC2=O)[C@@]2(C)C[C@@H]2C2=CC(C)=C(O2)[C@H]1O	> 75	> 75	> 75	> 75	> 75	> 75	> 75		> 75	> 75	> 75
CCCCCCCCCCNC(=O)CCC(NC(=O)c1ccc(N(C)Cc2cnc3nc(N)nc(N)c3n2)cc1)C(=O)NCCCCCCCCCC (centres undefined)	73.5	57.7	14.1	30.5	30.4	> 100	> 100	12.6	19.3	59.3	40.2
Cc1nc2c(=O)n(C)ncc2[nH]1	> 100	> 100	> 100	> 100	> 100	> 100	> 100	> 100	> 100	> 100	> 100
CCCC(=O)OC1C(CO)OC(n2cc(F)c(=O)[nH]c2=O)C1F (centres undefined)	> 100			> 100	> 100	> 100	> 100	> 100	> 100	> 100	
CO/N=C(\C)CCC#Cc1ccccc1C(=O)OC	> 10	> 10	> 10	> 10	> 10	> 10	> 10	> 10	> 10	> 10	> 10
C=CCc1cccc2cc(C(=O)Nc3ccccn3)c(=N)oc12	> 100	> 100	> 100	> 100	> 100	> 100	> 100	> 100	> 100	> 100	> 100
CCOC(=O)c1c(N2CCOCC2)[nH]c(=O)c(C(c2ccco2)c2c(O)c(C(=O)OCC)c(N3CCOCC3)[nH]c2=O)c1O	> 100	> 100	> 100	> 100	> 100	> 100	> 100	> 100	> 100	> 100	> 100
Nc1onc2c1Cc1c(noc1N)-c1ccccc1-2	72.2	> 100	> 100	> 100	> 100	> 100	> 100	> 100	> 100	> 100	> 100
C=C(Br)CNC(=O)CCC(=O)NCC(=C)Br	> 100	> 100	> 100	> 100	> 100	> 100	> 100	> 100	> 100	> 100	> 100
CCC(=O)Nc1ccc(N2C(=O)C(Cl)C2c2ccc(SC)cc2)cc1 (centres undefined)	> 100	> 100		> 100	> 100	> 100	> 100	79.8	> 100	98.1	> 100
Cc1ccc(NC(=O)c2cc(S(=O)(=O)Nc3nc4ncccc4[nH]3)c(SSc3cc(Cl)c(C(=O)Nc4ccc(C)cc4)cc3S(=O)(=O)Nc3nc4ncccc4[nH]3)cc2Cl)cc1	> 100	> 100	> 100	> 100	> 100	> 100	> 100	> 100	> 100	> 100	> 100
O=C1c2ccc(O)c(O)c2C(=O)c2c(O)ccc(O)c21	53.8	54	> 100	62.2	66.5		89.1		55.2	50.5	> 100
N#Cc1cnc(N)nc1NCC1(CO)CC(CCc2ccccc2)C1 (centres undefined)	> 100	> 100	> 100	> 100	> 100	> 100	> 100	> 100	> 100	> 100	> 100
CCN1CCC(O)(c2ccc(Cl)cc2)C(C(=O)c2ccc(Cl)cc2)C1 (centres undefined)	> 100	> 100	> 100	> 100	> 100			> 100	> 100		> 100

Structure (SMILES)	TGI [1] [µM]	TGI [2] [µM]	TGI [3] [µM]	TGI [4] [µM]	TGI [5] [µM]	TGI [6] [µM]	TGI [7] [µM]	TGI [8] [µM]	TGI [9] [µM]	TGI [10] [µM]	TGI [11] [µM]
CC(=O)Nc1ccc(C2SCc3nc4ccccc4n32)cc1 (centres undefined)	28.6	> 100	> 100	> 100	> 100	> 100	> 100	> 100	> 100		> 100
C=C1C2C[C@@H]3O[C@H]4C[C@H]5O[C@@]6(C[C@@H]7O[C@]8(C[C@H](C)[C@@H]9O[C@@H]%10CC(CO)O[C@@H]%10C[C@@H]9O8)C[C@H](C)[C@@H]7O6)C[C@H]5O[C@H]4[C@H](C)[C@H]3OC(=O)C[C@H]3CC[C@@H]4OC5[C@H]6O[C@]7(CC[C@H]8CC(=C)[C@H](CC[C@@H](C[C@H]1C)O2)O8)CC6O[C@@H]5[C@@H](O7)[C@H]4O3 (some centres undefined)	> 1	> 1	> 1	> 1	> 1	> 1		0.00332	> 1	0.00022	> 0.874
CCOC(=O)c1ccc(N=c2sc3ccccc3nc2Nc2ccc(C(=O)OCC)cc2)cc1	> 100		> 100	> 100	> 100	> 100	> 100	> 100	> 100	> 100	> 100
CO/N=C(\C)c1cccc(Nc2c3ccccc3nc3occc23)c1	38.9	25.7	38.6	37.9	15.5	19.2	50.4	19.1	5.87	33.7	31.8
CC1=C(C(=O)Nc2ccccc2)C2(CCCCC2)C(C#N)=C(SCC(=O)Nc2ccc(Br)cc2)N1	19.6	10.9	15.3	9	6.6	17.6	20.2	8.39	14.1	23	8.74
CCCCn1c2c(n(CCCC)c1=S)-c1c(n(CCCC)c(=S)n1CCCC)SSc1c(n(CCCC)c(=S)n1CCCC)-c1c(n(CCCC)c(=S)n1CCCC)SSc1c(n(CCCC)c(=S)n1CCCC)-c1c(n(CCCC)c(=S)n1CCCC)SS2	> 50	> 50	> 50	> 50	29.3	> 40.2	30.4	> 36.6	> 50	> 38.4	> 30.2
C=CC(Cl)(CBr)CCC(Br)C(C)(C)Cl (centres undefined)	27.2	29	27.4	21.1	37.5		36.7	25.8	31.2	> 100	48.4
CC(C)/C(Cl)=N\OC(=O)Nc1cccc(Cl)c1	33.2	11	34.4	7.88	30	34.8	31.3	26.6	32.5	38.9	47.2
OC(c1cc(C23CC4CC(CC(C4)C2)C3)nc2c(Cl)cc(Cl)cc12)C1CCCCN1 (centres undefined)	3.05	3.13	3	3.57	3.46	3.24			3.07	3.77	3.25
CC(C)NC(=O)CN1CCN(c2c(O)c3c(c(O)c2Cl)C(=O)C=CC3=O)CC1	7.29	2.93	10.3		3.1	5	3.19	3.45	2.92	41.5	4.04
COCN1C(=O)[C@@H]2CCCN2C(=O)c2cc(N)ccc21	> 100	> 100	> 100		> 100	> 100	> 100		> 100		> 100
COc1ccc(/C=C2\CCC(C)C3=C2N=c2s/c(=C/c4cccc(Br)c4)c(=O)n2C3c2ccc(OC)c(OC)c2)cc1OC (centres undefined)	> 100	> 100	> 100	> 100	> 100	> 100	> 100	> 100	> 100		> 100
COc1cc(/C=c2\sc3n(c2=O)C(c2ccc(Cl)cc2)C2=C(CCCC2C)N=3)cc(OC)c1OC (centres undefined)	> 100	> 100	> 100	> 100	> 100	> 100	> 100	> 100	> 100		> 100
Cc1cc2c([nH]c3ccccc32)c2c1OC(C)(C)C1C3CC(C)(C)Oc4c(C)cc5c6ccccc6n(c5c43)C21 (centres undefined)	> 100	> 100	> 100	> 100	> 100	> 100	> 100	> 100	> 100		> 100
N#Cc1ccc(-n2c3ccccc3c3ccc4c(c32)C(=O)C=CC4=O)cc1	11	7.57	17.8		28.9	2.72	16.1	12.2	5.32	> 74.5	9.12
O=C(NCCCCCCNC(=O)c1cc(-c2ccccc2)nc2ccccc12)c1cc(-c2ccccc2)nc2ccccc12	> 100	> 100	> 100	> 100		> 100	> 100	> 100	> 100	> 100	> 100
COc1ccc(C(=O)/C=C/c2cc(O)c(O)c(F)c2F)c(OC)c1	55.5	> 100	32.1		33.6	> 100	36.6	25.3	59.6	56.6	> 100
CCOC(=O)c1ccc(NCC#CCN2CCCCC2)cc1	> 100	> 100	> 100	> 100	> 100		> 100	> 100	> 100	> 100	> 100
COc1cc(CNNC(N)=S)cc(OC)c1OC	> 100	> 100	> 100	> 100		> 100	> 100	> 100	> 100	> 100	> 100
